# In ChEMBL document CHEMBL4402510, “Caprazamycins: Promising lead structures acting on a novel antibacterial target MraY” (Eur J Med Chem, 2019):
# Legend:
# [1] = target: T1, Phospho-N-acetylmuramoyl-pentapeptide-transferase (Aquifex aeolicus (strain VF5), UniProt O66465); assay: Inhibition of MraY in Aquifex aeolicus
# T1 sequence (O66465 whole entry): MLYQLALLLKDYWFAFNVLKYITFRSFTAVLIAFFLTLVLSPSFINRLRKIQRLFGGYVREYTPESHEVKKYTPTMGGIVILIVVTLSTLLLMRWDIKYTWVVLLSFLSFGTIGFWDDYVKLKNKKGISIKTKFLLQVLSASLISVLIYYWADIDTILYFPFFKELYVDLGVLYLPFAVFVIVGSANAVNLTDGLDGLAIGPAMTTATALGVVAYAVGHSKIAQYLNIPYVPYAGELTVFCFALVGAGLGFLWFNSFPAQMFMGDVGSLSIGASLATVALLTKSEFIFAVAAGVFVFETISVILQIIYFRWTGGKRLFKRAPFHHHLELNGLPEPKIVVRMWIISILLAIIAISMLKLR
# [2] = target: T2, Phospho-N-acetylmuramoyl-pentapeptide-transferase (Bacillus subtilis (strain 168), UniProt Q03521); assay: Inhibition of MraY in Bacillus subtilis
# T2 sequence (Q03521 whole entry): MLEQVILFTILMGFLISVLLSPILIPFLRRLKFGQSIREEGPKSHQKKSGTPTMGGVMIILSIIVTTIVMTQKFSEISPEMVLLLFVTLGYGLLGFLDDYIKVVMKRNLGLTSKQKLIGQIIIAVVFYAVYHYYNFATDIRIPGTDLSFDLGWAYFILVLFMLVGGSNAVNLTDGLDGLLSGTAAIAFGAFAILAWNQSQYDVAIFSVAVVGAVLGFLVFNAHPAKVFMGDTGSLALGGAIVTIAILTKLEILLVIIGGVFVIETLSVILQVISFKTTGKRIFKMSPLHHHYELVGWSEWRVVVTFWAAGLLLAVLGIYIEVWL
# [3] = test system: Staphylococcus aureus; assay: Antibacterial activity against methicillin resistant Staphylococcus aureus SR3637; type: functional
# [4] = test system: Enterococcus faecalis; assay: Antibacterial activity against Enterococcus faecalis SR7914 (VRE); type: functional
# [5] = test system: Enterococcus faecalis; assay: Antibacterial activity against Enterococcus faecalis ATCC 29212; type: functional
# [6] = test system: Enterococcus faecium; assay: Antibacterial activity against Enterococcus faecium SR7917 (VRE); type: functional
# [7] = test system: Staphylococcus aureus; assay: Antibacterial activity against methicillin susceptible Staphylococcus aureus ATCC 29213; type: functional
compound,measurement,setting,value
NC[C@H]1O[C@@H](O[C@@H](Cc2cn(CCCCCCCCCCOc3ccc(C(=O)c4ccccc4)cc3)nn2)[C@H]2O[C@@H](n3ccc(=O)[nH]c3=O)[C@H](O)[C@@H]2O)[C@H](O)[C@@H]1O,IC50,[1],25 µM
NCCCCCCCCCn1cc(C[C@H](O[C@@H]2O[C@H](CN)[C@@H](O)[C@H]2O)[C@H]2O[C@@H](n3ccc(=O)[nH]c3=O)[C@H](O)[C@@H]2O)nn1,IC50,[1],200 µM
NC[C@H]1O[C@@H](O[C@@H](Cc2cn(CCCCCO)nn2)[C@H]2O[C@@H](n3ccc(=O)[nH]c3=O)[C@H](O)[C@@H]2O)[C@H](O)[C@@H]1O,IC50,[1],400 µM
NCCCCCn1cc([C@H](O[C@@H]2O[C@H](CN)[C@@H](O)[C@H]2O)[C@H]2O[C@@H](n3ccc(=O)[nH]c3=O)[C@H](O)[C@@H]2O)nn1,IC50,[2],> 1000 µM
NC[C@H]1O[C@@H](O[C@@H](Cc2cn(CCCCCCCCCCO)nn2)[C@H]2O[C@@H](n3ccc(=O)[nH]c3=O)[C@H](O)[C@@H]2O)[C@H](O)[C@@H]1O,IC50,[1],40 µM
"CCCCCCCCCCCCCCC[C@H](NC(=O)[C@@H](N)CCCNC(=N)N)C(=O)NC[C@@H]1CC2[C@H](C(=O)N1)[C@@H]([C@H]1O[C@@H](n3ccc(=O)[nH]c3=O)[C@H](O)[C@@H]1O)ON2CCCN (single isomer, unassigned)",MIC,[3],32 µg/mL
same,MIC,[4],32 µg/mL
same,MIC,[5],32 µg/mL
same,MIC,[6],16 µg/mL
same,MIC,[7],> 64 µg/mL
NC[C@H]1O[C@@H](O[C@@H](c2cn(CCCCCO)nn2)[C@H]2O[C@@H](n3ccc(=O)[nH]c3=O)[C@H](O)[C@@H]2O)[C@H](O)[C@@H]1O,IC50,[2],> 1000 µM
NC[C@H]1O[C@@H](O[C@@H](c2cn(CCCO)nn2)[C@H]2O[C@@H](n3ccc(=O)[nH]c3=O)[C@H](O)[C@@H]2O)[C@H](O)[C@@H]1O,IC50,[2],> 1000 µM
NC[C@H]1O[C@@H](O[C@@H](c2cn(CCCn3ccnc3)nn2)[C@H]2O[C@@H](n3ccc(=O)[nH]c3=O)[C@H](O)[C@@H]2O)[C@H](O)[C@@H]1O,IC50,[2],> 1000 µM
NC[C@H]1O[C@@H](O[C@@H](c2cn(CCCCCCCCCCOc3ccc(C(=O)c4ccccc4)cc3)nn2)[C@H]2O[C@@H](n3ccc(=O)[nH]c3=O)[C@H](O)[C@@H]2O)[C@H](O)[C@@H]1O,IC50,[2],125 µM
"CCCCCCCCCCCCCCC[C@H](NC(=O)[C@@H](N)CCCNC(=N)N)C(=O)NC[C@@H]1CC[C@H]2C(C(=O)N1)[C@H]([C@H]1O[C@@H](n3ccc(=O)[nH]c3=O)[C@H](O)[C@@H]1O)ON2CCCN (single isomer, unassigned)",MIC,[3],32 µg/mL
same,MIC,[4],16 µg/mL
same,MIC,[5],16 µg/mL
same,MIC,[6],8 µg/mL
same,MIC,[7],16 µg/mL
NC[C@H]1O[C@@H](O[C@@H](Cc2cn(CCOCCOCCOCCOCCO)nn2)[C@H]2O[C@@H](n3ccc(=O)[nH]c3=O)[C@H](O)[C@@H]2O)[C@H](O)[C@@H]1O,IC50,[1],750 µM
NC[C@H]1O[C@@H](O[C@@H](c2cn(CCc3ccc(-c4ccccc4)cc3)nn2)[C@H]2O[C@@H](n3ccc(=O)[nH]c3=O)[C@H](O)[C@@H]2O)[C@H](O)[C@@H]1O,IC50,[2],400 µM
NC[C@H]1O[C@@H](O[C@@H](c2cn(CCN3CCN(c4ccc(N)cn4)CC3)nn2)[C@H]2O[C@@H](n3ccc(=O)[nH]c3=O)[C@H](O)[C@@H]2O)[C@H](O)[C@@H]1O,IC50,[2],> 1000 µM
NC[C@H]1O[C@@H](O[C@@H](c2cn(CCCOc3ccc(C(=O)c4ccccc4)cc3)nn2)[C@H]2O[C@@H](n3ccc(=O)[nH]c3=O)[C@H](O)[C@@H]2O)[C@H](O)[C@@H]1O [listing 1 of 2 here],IC50,[2],100 µM
NC[C@H]1O[C@@H](O[C@@H](c2cn(CCCOc3ccc(C(=O)c4ccccc4)cc3)nn2)[C@H]2O[C@@H](n3ccc(=O)[nH]c3=O)[C@H](O)[C@@H]2O)[C@H](O)[C@@H]1O [listing 2 of 2 here],IC50,[1],125 µM
same,IC50,[2],100 µM
CCCCCCCCCCn1cc([C@H](O[C@@H]2O[C@H](CN)[C@@H](O)[C@H]2O)[C@H]2O[C@@H](n3ccc(=O)[nH]c3=O)[C@H](O)[C@@H]2O)nn1,IC50,[2],140 µM
